# Source: patent US10300058B2, “Tyrosine kinase inhibitor and uses thereof” (Xuanzhu Pharma Co., Ltd., priority 2014, dated 2019)
# Key:
# [1] = Pharmacokinetics in rat; type: in vivo; conditions: male, plasma, SD rat; for bioavailability: read-out: F (absolute bioavailability)
# Protocol: Test animal: male SD rat, 3 rats, weight: 200-250 g/rat
# Blank solvent for intragastric administration (po) of Compound 2, 27: 0.1% Tween 80+2% HPC (hydroxypropyl cellulose),
# Preparation: HPC (hydroxypropyl cellulose) (20 g) was weighed, and slowly added to purified water (1000 mL) under stirring, and Tween 80 (1 mL) was added. The mixture was stirred until it became clear, to get a blank solvent of 0.1% Tween 80+2% HPC. Compound 2 (3.21 mg) and Compound 27 (3.03 mg) were weighed, respectively, solvent was added, and the resultant mixture was placed in a tissue grinder, and ground at a speed of 1000 r/min. After homogeneous dispersion, a solution for intragastric administration at a theoretical concentration of 0.5 mg/mL was obtained. […] After homogeneous dispersion, a solution for intragastric administration at a theoretical concentration of 1.0 mg/mL was obtained.
# A blank solvent for intravenous injection (iv) for Compound 2, 27, 31: 5% DMSO+10% PEG400+85% (28% HP-β-CD)
# Compound 2 (2.98 mg), Compound 27 (2.98 mg), and Compound 31 (3.27 mg) were weighed, respectively, and blank solvent for intravenous injection was added. The resultant mixture was mixed homogeneously under vortexing, placed in a 50° C. constant temperature water bath for 20 min, and filtrated through a 0.22 μm filter membrane to get a clear and transparent solution for intravenous injection at a theoretical concentration of 0.5 mg/mL.
# Formulation of Compound 31 for intravenous injection (iv): 20% DMF+20% PEG400+60% sterile water for injection
# Compound 31 (3.10 mg) was weighed, and dissolved in 1.262 mL DMF (N,N-dimethylformamide) ultrasonically. 1.262 mL PEG400 was added, and the resultant mixture was mixed homogeneously under vortexing. 3.786 mL sterile water for injection was added. The mixture was vertexed homogeneously to get a clear and transparent solution for intravenous injection at a theoretical concentration of 0.5 mg/ml.
# po: 0.167 h, 0.5 h, 1 h, 2 h, 4 h, 6 h, 8 h, 24 h after administration.
# About 100 μL whole blood was collected from caudal vein at each time point, added to an anticoagulation tube containing K2EDTA, and centrifuged at 8000 r/min for 6 min in a low-temperature centrifuge to separate the plasma; the plasma was stored in a refrigerator at −80° C.
# The plasma samples of Compound 2, 27, and 31 were analyzed by means of protein precipitation: to 30 μL plasma, 200 μL internal standard (acetonitrile solution containing 50 ng/mL CNX-2006, the structure of which is
# [drawing 56] prepared by reference to the method in Patent WO2012064706A1) was added; the resultant mixture was vortexted for 10 min at 1000 r/min, and centrifuged for 20 min at 4000 r/min; to 100 μL supernatant, 100 μL water was added; the resultant mixture was mixed homogeneously under vortexing and analyzed by LC-MS/MS.
# [2] = Pharmacokinetics in dog; type: in vivo, male Beagle dog; conditions: Beagle dog; for pharmacokinetic properties (conclusion in words): iv and po, Tables 13 and 14; for AUC(0-t) / clearance / Vd / Cmax / Tmax / bioavailability: male, plasma; for Vd: read-out: Vss; for bioavailability: read-out: F (absolute bioavailability)
# Protocol: Test animal: male Beagle dog, 3 dogs/administration route/compound, weight: 7-12 kg.
# Solvent for intraveneous injection (iv) of Compound 31: 20% DMF (N,N-dimethylformamide)+20% PEG400 (polyethylene glycol 400)+60% sterile water for injection
# Compound 31 (15.40 mg) was weighed, dissolved in solvent for intraveneous injection ultrasonically, and mixed homogeneously under vortexing, to get a clear and transparent compound solution at a theoretical concentration of 0.5 mg/mL.
# Solvent for intraveneous injection (iv) of Compound 2, 28: 5% DMSO+10% PEG400+85% (28% HP-β-CD)
# Compound 2 (20.72 mg) and Compound 28 (16.16 mg) were weighed, respectively, dissolved by adding solvent for intraveneous injection, mixed homogeneously under vortexing, placed in a 50° C. constant temperature water bath for 20 min, and mixed homogeneously under vortexing to get a clear and transparent compound solution at a theoretical concentration of 0.5 mg/mL.
# Solvent for intragastric administration (po) of Compound 2, 28, 31: 0.1% Tween 80+2% HPC (hydroxypropyl cellulose)
# Preparation: HPC (hydroxypropyl cellulose) (20 g) was weighed, and slowly added to purified water (1000 mL) under stirring. Tween 80 (1 mL) was added, and the mixture was stirred until it became clear, to get a solvent for intragastric administration. Compound 2 (41.77 mg), Compound 31 (31.35 mg) and Compound 28 (31.10 mg) were weighed, respectively, solvent for intragastric administration was added, and the resultant mixture was placed in a tissue grinder, and ground at a speed of 1000 r/min. After homogeneous dispersion, the solution for intragastric administration was obtained.
# For PO group: 0.167, 0.5, 1, 2, 4, 6, 8, 24 h after administration.
# Blood collection: 400 μL whole blood was collected from vein of dog fore limb at each time point, added to an anticoagulation tube containing K2EDTA, and centrifuged at 8000 r/min, 4° C. for 6 min in a centrifuge to separate the plasma; the separated plasma was stored in a refrigerator at −80° C.
# By means of protein precipitation, to 30 μL plasma, 200 μL internal standard (acetonitrile solution containing 50 ng/mL CNX-2006) was added; the resultant mixture was vortexted for 10 min at 1500 r/min, and centrifuged at 12000 r/min for 5 min; to a suitable amount of supernatant, a suitable amount of water was added; the resultant mixture was mixed homogeneously under vortexing and analyzed by LC-MS/MS.
"AUC(0-t) ([1]; iv, 1 mg/kg) [ng·h/mL]","clearance ([1]; iv, 1 mg/kg) [mL/min/kg]","AUC(0-t) ([1]; po, 2 mg/kg) [ng·h/mL]","bioavailability ([1]; po, 2 mg/kg) [%]",pharmacokinetic properties (conclusion in words) [2],"AUC(0-t) ([2]; iv, 0.5 mg/kg) [ng·h/mL]","clearance ([2]; iv, 0.5 mg/kg) [mL/min/kg]","Vd ([2]; iv, 0.5 mg/kg) [L/kg]",SMILES,other results
723,26,267,19,good pharmacokinetic properties,693,11.8,1.36,"C=CC(=O)Nc1cccc(Nc2nc(Nc3ccc(C4CCN(C(C)=O)CC4)cc3OC)ncc2C(F)(F)F)c1 [Compound 2, N-(3-((2-((4-(1-acetylpiperidin-4-yl)-2-methoxyphenyl)amino)-5-(trifluoromethyl)pyrimidin-4-yl)amino)phenyl)acrylamide]","AUC(0-t) ([2]; po, 0.54 mg/kg): 528 ng·h/mL; Cmax ([2]; po, 0.54 mg/kg): 211 ng/mL; Tmax ([2]; po, 0.54 mg/kg): 0.5 h; bioavailability ([2]; po, 0.54 mg/kg): 70%"
774,22.7,754,49,,,,,"C=CC(=O)Nc1cccc(Nc2nc(Nc3ccc(C4CCN(S(C)(=O)=O)CC4)cc3OC)ncc2C(F)(F)F)c1 [Compound 27, N-(3-((2-((2-methoxy-4-(1-(methylsulfonyl)piperidin-4-yl)phenyl)amino)-5-(trifluoromethyl)pyrimidin-4-yl)amino)phenyl)acrylamide]",
,,,,good pharmacokinetic properties,1580,5.5,1.1,"C=CC(=O)Nc1cccc(Nc2nc(Nc3ccc(N4CCC(N5CCOCC5)CC4)cc3OC)ncc2C(F)(F)F)c1 [Compound 28, N-(3-((2-((2-methoxy-4-(4-morpholinopiperidin-1-yl)phenyl)amino)-5-(trifluoromethyl)pyrimidin-4-yl)amino)phenyl)acrylamide]","AUC(0-t) ([2]; po, 1.28 mg/kg): 1820 ng·h/mL; Cmax ([2]; po, 1.28 mg/kg): 523 ng/mL; Tmax ([2]; po, 1.28 mg/kg): 1 h; bioavailability ([2]; po, 1.28 mg/kg): 46%"
,,,,good pharmacokinetic properties,1270,6.67,0.38,"C=CC(=O)Nc1cccc(Nc2nc(Nc3ccc(N4CC5(CN(C(C)=O)C5)C4)cc3OC)ncc2C(F)(F)F)c1 [Compound 31, N-(3-((2-((4-(6-acetyl-2,6-diazaspiro[3.3]heptan-2-yl)-2-methoxyphenyl)amino)-5-(trifluoromethyl)pyrimidin-4-yl)amino)phenyl)acrylamide]","AUC(0-t) ([1]; iv, 0.74 mg/kg): 1020 ng·h/mL; clearance ([1]; iv, 0.74 mg/kg): 12.2 mL/min/kg; AUC(0-t) ([2]; po, 1 mg/kg): 545 ng·h/mL; Cmax ([2]; po, 1 mg/kg): 261 ng/mL; Tmax ([2]; po, 1 mg/kg): 1 h; bioavailability ([2]; po, 1 mg/kg): 23%"
